The supplement of paper PMC10307832

How the values were obtained:
Experiment in all cases: relative viability (nuclei count vs DMSO), 5 days (fraction); higher = more cells survive
CAL-12T = tested on: CAL-12T
In short: (§1)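 Lung cancer cell lines in 1536-well plates got either a single drug or a fixed anchor-drug dose together with five library-drug doses (not always all listed) in √10 steps, by pin tool, on the day after seeding. Nuclei were counted after 5 days, and relative viability is the treated-to-vehicle ratio of nuclei counts. Values are medians of duplicate plates.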

COR-L 105 = tested on: COR-L 105
In short: as §1

EMC-BAC-2 = tested on: EMC-BAC-2
In short: as §1

H3255 = tested on: H3255
In short: as §1

LC-2-ad = tested on: LC-2-ad
In short: as §1

LK-2 = tested on: LK-2
In short: as §1

NCI-H1395 = tested on: NCI-H1395
In short: as §1

NCI-H1437 = tested on: NCI-H1437
In short: as §1

NCI-H1651 = tested on: NCI-H1651
In short: as §1

NCI-H1755 = tested on: NCI-H1755
In short: as §1

NCI-H1793 = tested on: NCI-H1793
In short: as §1

NCI-H1915 = tested on: NCI-H1915
In short: as §1

NCI-H1944 = tested on: NCI-H1944
In short: as §1

NCI-H2085 = tested on: NCI-H2085
In short: as §1

NCI-H2087 = tested on: NCI-H2087
In short: as §1

NCI-H2228 = tested on: NCI-H2228
In short: as §1

NCI-H2342 = tested on: NCI-H2342
In short: as §1

NCI-H2347 = tested on: NCI-H2347
In short: as §1

NCI-H522 = tested on: NCI-H522
In short: as §1

NCI-H661 = tested on: NCI-H661
In short: as §1

PC-3 [JPC-3] = tested on: PC-3 [JPC-3]
In short: as §1

SK-LU-1 = tested on: SK-LU-1
In short: as §1

For `COCC1(CO)C(=O)C2CCN1CC2` (stereo unspecified) [PRIMA-1MET] + Nc1nc2[nH]cc(CCc3ccc(C(=O)N[C@@H](CCC(=O)O)C(=O)O)cc3)c2c(=O)[nH]1 [Pemetrexed] (partner 0.2 µM), the relative viability (CAL-12T; first compound 0.2 µM) was 1.18, the relative viability (CAL-12T; first compound 0.6325 µM) was 1.19 and the relative viability (CAL-12T; first compound 2 µM) was 1.19. It also gave a relative viability (CAL-12T; first compound 6.325 µM) of 1.36, a relative viability (CAL-12T; first compound 20 µM) of 0.13 and a relative viability (COR-L 105; first compound 0.2 µM) of 1.3. The relative viability (COR-L 105; first compound 0.6325 µM) was 1.17, the relative viability (COR-L 105; first compound 2 µM) was 1.22 and the relative viability (COR-L 105; first compound 6.325 µM) was 1.1. The relative viability (COR-L 105; first compound 20 µM) was 0.229, the relative viability (EMC-BAC-2; first compound 0.2 µM) was 0.549 and the relative viability (EMC-BAC-2; first compound 0.6325 µM) was 0.44. The relative viability (EMC-BAC-2; first compound 2 µM) was 0.422, the relative viability (EMC-BAC-2; first compound 6.325 µM) was 0.459 and the relative viability (EMC-BAC-2; first compound 20 µM) was 0.473. It also gave a relative viability (H3255; first compound 0.2 µM) of 0.634, a relative viability (H3255; first compound 0.6325 µM) of 0.458 and a relative viability (H3255; first compound 2 µM) of 0.601. It also gave a relative viability (H3255; first compound 6.325 µM) of 0.567, a relative viability (H3255; first compound 20 µM) of 0.534 and a relative viability (LC-2-ad; first compound 0.2 µM) of 0.26. The relative viability (LC-2-ad; first compound 0.6325 µM) was 0.301, the relative viability (LC-2-ad; first compound 2 µM) was 0.268 and the relative viability (LC-2-ad; first compound 6.325 µM) was 0.273. It also gave a relative viability (LC-2-ad; first compound 20 µM) of 0.259, a relative viability (LK-2; first compound 0.2 µM) of 0.271 and a relative viability (LK-2; first compound 0.6325 µM) of 0.0831. It also gave a relative viability (LK-2; first compound 2 µM) of 0.221, a relative viability (LK-2; first compound 6.325 µM) of 0.125 and a relative viability (LK-2; first compound 20 µM) of 0.0594. It also gave a relative viability (NCI-H1395; first compound 0.2 µM) of 0.842, a relative viability (NCI-H1395; first compound 2 µM) of 0.771 and a relative viability (NCI-H1395; first compound 6.325 µM) of 0.881. It also gave a relative viability (NCI-H1395; first compound 20 µM) of 0.154, a relative viability (NCI-H1437; first compound 0.2 µM) of 0.32 and a relative viability (NCI-H1437; first compound 0.6325 µM) of 0.284. For the same compound, the relative viability (NCI-H1437; first compound 2 µM) was 0.308, the relative viability (NCI-H1437; first compound 6.325 µM) was 0.298 and the relative viability (NCI-H1437; first compound 20 µM) was 0.283. For the same compound, the relative viability (NCI-H1651; first compound 0.2 µM) was 0.641, the relative viability (NCI-H1651; first compound 0.6325 µM) was 0.192 and the relative viability (NCI-H1651; first compound 2 µM) was 0.542. It also gave a relative viability (NCI-H1651; first compound 6.325 µM) of 0.605, a relative viability (NCI-H1651; first compound 20 µM) of 0.651 and a relative viability (NCI-H1755; first compound 0.2 µM) of 0.465. It also gave a relative viability (NCI-H1755; first compound 0.6325 µM) of 0.388, a relative viability (NCI-H1755; first compound 2 µM) of 0.406 and a relative viability (NCI-H1755; first compound 6.325 µM) of 0.333. For the same compound, the relative viability (NCI-H1755; first compound 20 µM) was 0.373, the relative viability (NCI-H1793; first compound 0.2 µM) was 0.964 and the relative viability (NCI-H1793; first compound 0.6325 µM) was 0.803. It also gave a relative viability (NCI-H1793; first compound 6.325 µM) of 1.09, a relative viability (NCI-H1793; first compound 20 µM) of 0.919 and a relative viability (NCI-H1915; first compound 0.2 µM) of 0.54. It also gave a relative viability (NCI-H1915; first compound 0.6325 µM) of 0.522, a relative viability (NCI-H1915; first compound 2 µM) of 0.466 and a relative viability (NCI-H1915; first compound 6.325 µM) of 0.511. The relative viability (NCI-H1915; first compound 20 µM) was 0.467, the relative viability (NCI-H1944; first compound 0.2 µM) was 0.738 and the relative viability (NCI-H1944; first compound 0.6325 µM) was 0.555. For the same compound, the relative viability (NCI-H1944; first compound 2 µM) was 0.535, the relative viability (NCI-H1944; first compound 6.325 µM) was 0.519 and the relative viability (NCI-H1944; first compound 20 µM) was 0.655. It also gave a relative viability (NCI-H2085; first compound 0.2 µM) of 0.936, a relative viability (NCI-H2085; first compound 0.6325 µM) of 0.925 and a relative viability (NCI-H2085; first compound 2 µM) of 0.549. The relative viability (NCI-H2085; first compound 6.325 µM) was 0.862, the relative viability (NCI-H2085; first compound 20 µM) was 0.165 and the relative viability (NCI-H2087; first compound 0.6325 µM) was 0.639. It also gave a relative viability (NCI-H2087; first compound 2 µM) of 0.68, a relative viability (NCI-H2087; first compound 6.325 µM) of 0.61 and a relative viability (NCI-H2087; first compound 20 µM) of 0.563. It also gave a relative viability (NCI-H2228; first compound 0.2 µM) of 0.351, a relative viability (NCI-H2228; first compound 0.6325 µM) of 0.332 and a relative viability (NCI-H2228; first compound 2 µM) of 0.3. The relative viability (NCI-H2228; first compound 6.325 µM) was 0.305, the relative viability (NCI-H2228; first compound 20 µM) was 0.0521 and the relative viability (NCI-H2342; first compound 0.2 µM) was 0.789. For the same compound, the relative viability (NCI-H2342; first compound 0.6325 µM) was 0.852, the relative viability (NCI-H2342; first compound 6.325 µM) was 0.691 and the relative viability (NCI-H2342; first compound 20 µM) was 0.753. The relative viability (NCI-H2347; first compound 0.2 µM) was 0.441, the relative viability (NCI-H2347; first compound 0.6325 µM) was 0.455 and the relative viability (NCI-H2347; first compound 2 µM) was 0.335. For the same compound, the relative viability (NCI-H2347; first compound 6.325 µM) was 0.407, the relative viability (NCI-H2347; first compound 20 µM) was 0.398 and the relative viability (NCI-H522; first compound 0.2 µM) was 0.789. The relative viability (NCI-H522; first compound 0.6325 µM) was 0.927, the relative viability (NCI-H522; first compound 2 µM) was 1.01 and the relative viability (NCI-H522; first compound 6.325 µM) was 0.946. It also gave a relative viability (NCI-H522; first compound 20 µM) of 0.423, a relative viability (NCI-H661; first compound 0.2 µM) of 0.954 and a relative viability (NCI-H661; first compound 0.6325 µM) of 0.849. The relative viability (NCI-H661; first compound 2 µM) was 0.952, the relative viability (NCI-H661; first compound 6.325 µM) was 0.963 and the relative viability (NCI-H661; first compound 20 µM) was 0.928. The relative viability (PC-3 [JPC-3]; first compound 0.2 µM) was 1.06, the relative viability (PC-3 [JPC-3]; first compound 0.6325 µM) was 0.975 and the relative viability (PC-3 [JPC-3]; first compound 2 µM) was 1.04. It also gave a relative viability (PC-3 [JPC-3]; first compound 6.325 µM) of 1.14, a relative viability (PC-3 [JPC-3]; first compound 20 µM) of 1.04 and a relative viability (SK-LU-1; first compound 0.2 µM) of 1.01. For the same compound, the relative viability (SK-LU-1; first compound 0.6325 µM) was 1.12, the relative viability (SK-LU-1; first compound 2 µM) was 1.01 and the relative viability (SK-LU-1; first compound 6.325 µM) was 0.955. It also gave a relative viability (SK-LU-1; first compound 20 µM) of 0.652.
